Test system: 699152-130-R-J1-PDC complex spheroid growth
Assay: Anticancer human tumor 699152-130-R-J1-PDC patient-derived pancreatic carcinoma cell line growth inhibition [AhR]
Conditions: for IC50: curve of first compound; for viability, T/C: stronger effect = lower value
Excerpt: Multicellular complex tumor spheroid response to aryl hydrocarbon receptor antagonists in combination with a variety of drugs and investigational agents in selected tumor cell lines
The current study was undertaken to assess response to aryl hydrocarbon receptor antagonists in combination with standard-of-care drugs and investigational agents in solid tumor complex spheroid models. Complex spheroids include a stromal component modeled by human endothelial cells (HUVEC) and fibroblasts modeled by human mesenchymal stem cells (MSCs). The concentration ranges selected for each drug and investigational agent were based upon clinically achievable concentrations if the clinical Cmax of the agent was known.
Compounds. The drugs and investigational agents: BAY 2416964 (NSC825713), GNF351 (NSC835774), CH-223191 (NSC835775), CPI-455 (NSC825282), aza-TdCyd (NSC777586), decitabine (NSC127716), belinostat (NSC758774), entinostat (NSC756642), pevonedistat (NSC761192), tazemetostat (NSC777109), talazoparib (NSC765396), olaparib (NSC753686), selinexor (NSC780203), nedisertib (M3814, NSC802822), bortezomib (NSC756655), venetoclax (NSC766270), doxorubicin (NSC123127), elimusertib (BAY189344, NSC800525), ceralasertib (AZD6738, NSC777638), TAK-243 (NSC785004), alisertib (NSC759677), etoposide (NSC141540), topotecan (NSC609699), eribulin (NSC707389), gemcitabine (NSC613327), carboplatin (NSC241240), cisplatin (NSC119875), and SN-38 (NSC673596) were obtained from the National Cancer Institute (NCI) Developmental Therapeutics Program Chemical Repository (32). The FDA-approved anticancer drug set is available from the Developmental Therapeutics Program at https://dtp.cancer.gov/organization/dscb/obtaining/available plates.htm. […] The stock solutions were prepared in dimethyl sulfoxide (DMSO, Sigma-Aldrich, St. Louis, MO, cat. D2650), except for the platinum compounds which were prepared in saline (Quality Biological, Gaithersburg, MD, cat. 114-055-101), at 800-fold the tested concentration and stored at -70 degrees C prior to their use. All drugs and investigational agents were tested over a range starting from a high concentration at or near the clinical Cmax and decreasing in half-log increments. If the clinical Cmax for an agent had not been determined, the highest concentration tested was 10 microM (Table 1).
Cell Culture. All cells were maintained in an incubator at 37 degrees C and 5% CO2 with 95% humidity. The PDC lines were cultured according to standard operating procedures established by the NCI PDMR (https://pdmr.cancer.gov). Briefly, all PDCs were thawed and cultured in Matrigel-coated flasks prepared with a working solution of 1X Ham's F-12 nutrient mix, without supplementation (Invitrogen, Waltham, MA, cat. 11765054), 100 U/mL penicillin-streptomycin (Invitrogen, cat. 15140122), and 2.5% Matrigel (Corning Inc., Corning, NY, cat. 354248) for the first three passages. All PDCs were cultured in complete DMEM/F-12 media containing advanced DMEM/F-12 (Invitrogen, cat. 12634028), 4.9% defined fetal bovine serum, heat inactivated (HyClone Laboratories Inc., Logan, UT, cat. SH30070.03HI), 389 ng/mL hydrocortisone (Sigma-Aldrich, cat. H4001), 9.7 ng/mL human EGF recombinant protein (Invitrogen, cat. PHG0313), 23.4 microg/mL adenine (Sigma-Aldrich, cat. A2786), 97.3 U/mL penicillin-streptomycin (Invitrogen, cat. 15140122), 1.9 mM L-glutamine (Invitrogen, cat. 25030081), and 9.7 microM Y-27632 dihydrochloride (Tocris Bioscience, Bristol, United Kingdom, cat. 1254). The PDCs were cultured in complete DMEM/F12 media without 10 microM Y-27632 dihydrochloride for at least two passages prior to the screen. The established cell lines NCI-H1341 and […] were cultured in DMEM/F-12, HEPES (Invitrogen, cat. 11330032), 5% defined fetal bovine serum (HyClone Laboratories Inc., cat. SH30070.03), ITS premix universal culture supplement [insulin (5 microg/mL), transferrin (5 microg/mL), and selenious acid (5 ng/mL)] […]

[1] = second compound 0.1 µM, first compound 0.0316 µM
[2] = second compound 0.1 µM, first compound 0.1 µM
[3] = second compound 0.1 µM, first compound 0.316 µM
[4] = second compound 0.1 µM, first compound 1 µM
[5] = second compound 0.1 µM, first compound 3.16 µM
[6] = second compound 0.1 µM, first compound 10 µM
[7] = second compound 0.316 µM, first compound 0.0316 µM
[8] = second compound 0.316 µM, first compound 0.1 µM
[9] = second compound 0.316 µM, first compound 0.316 µM
[10] = second compound 0.316 µM, first compound 1 µM
[11] = second compound 0.316 µM, first compound 3.16 µM
[12] = second compound 0.316 µM, first compound 10 µM
[13] = second compound 1 µM, first compound 0.0316 µM
[14] = second compound 1 µM, first compound 0.1 µM
[15] = second compound 1 µM, first compound 0.316 µM
[16] = second compound 1 µM, first compound 1 µM
[17] = second compound 1 µM, first compound 3.16 µM
[18] = second compound 1 µM, first compound 10 µM
[19] = second compound 3.16 µM, first compound 0.0316 µM
[20] = second compound 3.16 µM, first compound 0.1 µM
[21] = second compound 3.16 µM, first compound 0.316 µM
[22] = second compound 3.16 µM, first compound 1 µM
[23] = second compound 3.16 µM, first compound 3.16 µM
[24] = second compound 3.16 µM, first compound 10 µM
[25] = second compound 10 µM, first compound 0.0316 µM
[26] = second compound 10 µM, first compound 0.1 µM
[27] = second compound 10 µM, first compound 0.316 µM
[28] = second compound 10 µM, first compound 1 µM
[29] = second compound 10 µM, first compound 3.16 µM
[30] = second compound 10 µM, first compound 10 µM
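Note: compound exposure lasted 7 days after spheroids had grown for 3 days.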

SMILES | IC50 (second compound 0.1 µM) [nM] | IC50 (second compound 0.316 µM) [nM] | IC50 (second compound 1 µM) [nM] | IC50 (second compound 3.16 µM) [nM] | IC50 (second compound 10 µM) [nM] | viability, T/C [1] [%] | viability, T/C [2] [%] | viability, T/C [3] [%] | viability, T/C [4] [%] | viability, T/C [5] [%] | viability, T/C [6] [%] | viability, T/C [7] [%] | viability, T/C [8] [%] | viability, T/C [9] [%] | viability, T/C [10] [%] | viability, T/C [11] [%] | viability, T/C [12] [%] | viability, T/C [13] [%] | viability, T/C [14] [%] | viability, T/C [15] [%] | also measured
COc1cc(Nc2ncc3c(n2)-c2ccc(Cl)cc2C(c2c(F)cccc2OC)=NC3)ccc1C(=O)O + CC(CO)NC(=O)c1cc(-c2ccc(Cl)cc2)nn(-c2cnn(C)c2)c1=O | > 10000 | > 10000 | > 10000 | > 10000 | > 10000 | 92.5 | 79.1 | 78.6 | 65.3 | 63.8 | 62.3 | 97 | 94.4 | 74.5 | 63 | 65.1 | 60.9 | 95 | 84 | 86 | viability, T/C [16]: 65.8%; viability, T/C [17]: 64.1%; viability, T/C [18]: 59.7%; viability, T/C [19]: 85%; viability, T/C [20]: 76.1%; viability, T/C [21]: 85.3%; viability, T/C [22]: 59.6%; viability, T/C [23]: 60.2%; viability, T/C [24]: 56.1%; viability, T/C [25]: 78.7%; viability, T/C [26]: 85.8%; viability, T/C [27]: 83%; viability, T/C [28]: 73.1%; viability, T/C [29]: 69.7%; viability, T/C [30]: 58.9%
NS(=O)(=O)OCC1CC(n2ccc3c(NC4CCc5ccccc54)ncnc32)CC1O (stereo not given) + CC(CO)NC(=O)c1cc(-c2ccc(Cl)cc2)nn(-c2cnn(C)c2)c1=O | 831 | 765 | 679 | 626 | 602 | 108 | 127 | 120 | 36.9 | 25.2 | 29.3 | 116 | 132 | 97.2 | 36.8 | 27.5 | 29.1 | 115 | 126 | 91.1 | viability, T/C [16]: 30.4%; viability, T/C [17]: 23.1%; viability, T/C [18]: 31.4%; viability, T/C [19]: 114%; viability, T/C [20]: 127%; viability, T/C [21]: 80.2%; viability, T/C [22]: 31.6%; viability, T/C [23]: 25.5%; viability, T/C [24]: 30.6%; viability, T/C [25]: 115%; viability, T/C [26]: 104%; viability, T/C [27]: 69.5%; viability, T/C [28]: 34.1%; viability, T/C [29]: 27.1%; viability, T/C [30]: 30.8%
